Common to all, as to type: in vivo
Data set [1] has as its system Alopecurus myosuroides. Put plainly: Test Example 5: herbicidal effect by foliage application, plastic box (symbol J). As to conditions: 320 g/ha, 3 weeks after application. In a few lines:
(§1)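 Greenhouse foliar test: seedlings at 14 days, grown 25° C. to 30° C. in sterilized diluvial soil; compound applied as an aqueous dilution of an emulsion; response read 3 weeks after spraying.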

In data set [2] the test system is Cyperus difformis. Kind of data set: Test Example 3: herbicidal effect by foliage application, Wagner pot (symbol E). As to conditions: application herbicide amount 320 g/ha. In a few lines:
(§2)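 Weeds and rice were sown in alluvial soil under 0.1–0.5 cm of standing water and grown for 14 days in a 25–30 °C greenhouse. An emulsion of the compound, diluted in water to a set dose, was sprayed evenly onto the foliage. Effect was scored against fixed criteria 3 weeks after treatment.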

The subject of data set [3] is rice. Put plainly: Test Example 4: effect on crop by soil treatment (symbol b). As to conditions: application herbicide amount 320 g/ha. Put shortly: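 Plants grew in a 25° C. to 30° C. greenhouse after spot-sowing of seeds, including beet, rapeseed, wheat and rice, into sterilized diluvial soil under roughly 1.5 cm of cover soil.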
In data set [4] the test system is Lolium multiflorum Lam. Put plainly: Test Example 5: herbicidal effect by foliage application, plastic box (symbol K). As to conditions: 320 g/ha, 3 weeks after application. In a few lines: as §1
Data set [5] deals with Scirpus juncoides. Kind of data set: Test Example 2: herbicidal activity, application during weed generation in submerged conditions (symbol B). The note with it: Table 23; application herbicide amount 320 g/ha; grade 0-5 by criteria of Test Example 1. Put shortly: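 Alluvial soil in pots was flooded to a 4 cm water depth and sown with a mix of the three weed species, then grown in a greenhouse at 25° C. to 30° C. At the one- to two-leaf stage, an emulsifiable formulation diluted in water to a set dose was applied to the water surface. Effects were scored visually 3 weeks later.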

The test system of data set [6] is corn. Kind of data set: Test Example 4: effect on crop by soil treatment (symbol c). As to conditions: application herbicide amount 320 g/ha. In a few lines: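 Soil-treatment setup: crop and weed seeds were spot-sown into sterilized diluvial soil, then buried beneath approximately 1.5 cm of it, and the boxes were housed in a 25–30° C. greenhouse.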
The subject of data set [7] is Setaria viridis. Put plainly: Test Example 5: herbicidal effect by foliage application, plastic box (symbol G). The note with it: 320 g/ha, 3 weeks after application. In a few lines:
as §1

The subject of data set [8] is Echinochloa crus-galli var. crus-galli. Kind of data set: Test Example 3: herbicidal effect by foliage application, Wagner pot (symbol H). As to conditions: application herbicide amount 320 g/ha. In a few lines:
as §2

Data set [9] has as its system Avena fatua. Put plainly: Test Example 5: herbicidal effect by foliage application, plastic box (symbol I). As to conditions: 320 g/ha, 3 weeks after application. Put shortly: as §1
Data set [10] deals with Stellaria media. Put plainly: Test Example 5: herbicidal effect by foliage application, plastic box (symbol P). As to conditions: 320 g/ha, 3 weeks after application. In a few lines: as §1
In data set [11] the test system is Apera spica-venti. Put plainly: Test Example 4: herbicidal effect by soil treatment (symbol L). As to conditions: application herbicide amount 320 g/ha. Put shortly:
(§3)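 Seeds were sown in sterilized diluvial soil, covered with about 1.5 cm of soil, and the soil surface was sprayed with a water-diluted emulsion of the compound at a predetermined rate. Plants grew in a greenhouse at 25° C. to 30° C.; effects were scored visually 3 weeks after application.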

Data set [12] concerns Veronica persica. Put plainly: Test Example 5: herbicidal effect by foliage application, plastic box (symbol R). As to conditions: 320 g/ha, 3 weeks after application. Put shortly:
as §1

The subject of data set [13] is wheat. Put plainly: Test Example 5: effect on crop by foliage application, plastic box (symbol e). The note with it: 320 g/ha, 3 weeks after application. Put shortly: (§4)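 Seeds were sown in spots in sterilized diluvial soil held in a plastic box 21 cm × 13 cm × 7 cm deep, covered with about 1.5 cm of soil, and grown in a greenhouse at 25° C. to 30° C.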
Data set [14] deals with Lolium multiflorum Lam. Kind of data set: Test Example 4: herbicidal effect by soil treatment (symbol K). As to conditions: application herbicide amount 320 g/ha. In a few lines:
as §3

Data set [15] deals with Echinochloa crus-galli var. crus-galli. Put plainly: Test Example 4: herbicidal effect by soil treatment (symbol H). The note with it: application herbicide amount 320 g/ha. In a few lines:
as §3

For data set [16], the system named is rice plant. Kind of data set: Test Example 5: effect on crop by foliage application, plastic box (symbol b). As to conditions: 320 g/ha, 3 weeks after application. In a few lines:
as §4

On to `CON=C(C)CC1CC(O)=C(c2c(C)cc(C)cc2Br)C1=O` (stereo not shown) [6-038], for which the “J: Alopecurus myosuroides, herbicidal effect grade” value (“J: Alopecurus myosuroides” for short) in data set [1] is listed as 5 (Herbicidal ratio of 90% or more (almost completely withered)). In data set [2], the “herbicidal effect on E, grade 0-5” value is listed as 5 (Herbicidal ratio of 90% or more (almost completely withered)). For the same compound, the “b: directly sowed rice plant, effect on crop grade” value (from here on “b: directly sowed rice plant”) in [3] and in data set [16] was 5 (Herbicidal ratio of 90% or more (almost completely withered)) each time. The “K: Lolium multiflorum Lam., herbicidal effect grade” value in data set [4] and in data set [14] was 5 (Herbicidal ratio of 90% or more (almost completely withered)) throughout. The “Herbicidal effect grade, B: Scirpus juncoides” value (from here on “Herbicidal effect grade, B”) in data set [5] is 4 (Herbicidal ratio of 70% or higher and lower than 90%). The “c: corn, effect on crop grade” value in data set [6] is reported as 5 (Herbicidal ratio of 90% or more (almost completely withered)). Moreover, the “G: Setaria viridis, herbicidal effect grade” value (“G: Setaria viridis” for short) in data set [7] was 5 (Herbicidal ratio of 90% or more (almost completely withered)). In data set [8], the “herbicidal effect on H (Echinochloa crus-galli var. crus-galli), grade 0-5” value (shortened to “herbicidal effect on H”) is 5 (Herbicidal ratio of 90% or more (almost completely withered)). In addition, the “I: Avena fatua, herbicidal effect grade” value in data set [9] was 5 (Herbicidal ratio of 90% or more (almost completely withered)). The “P: Stellaria media, herbicidal effect grade” value (shortened to “P: Stellaria media”) in [10] is 4 (Herbicidal ratio of 70% or higher and lower than 90%). In addition, the “L: Apera spica-venti, herbicidal effect grade” value (“L: Apera spica-venti” below) in [11] is 5 (Herbicidal ratio of 90% or more (almost completely withered)). The “R: Veronica persica, herbicidal effect grade” value (“R: Veronica persica” below) in [12] was 3 (Herbicidal ratio of 40% or higher and lower than 70%). Besides, the “e: wheat, effect on crop grade” value in [13] was 3 (Herbicidal ratio of 40% or higher and lower than 70%). Moreover, the “H: Echinochloa crus-galli var. crus-galli, herbicidal effect grade” value in [15] is 5 (Herbicidal ratio of 90% or more (almost completely withered)).
Take `CCOC(=O)C(C(=O)Cc1ccccc1)C1CC(O)=C(c2c(C)cc(C)cc2C)C1=O` (stereo not shown) [2-011]: the “J: Alopecurus myosuroides” value in data set [1] is 1 (Herbicidal ratio of 5% or higher and lower than 20%). Moreover, the “herbicidal effect on E, grade 0-5” value in data set [2] is on record as 0 (Herbicidal ratio of 5% or lower (almost no effect)). Besides, the “b: directly sowed rice plant” value in data set [3] was 0 (Herbicidal ratio of 5% or lower (almost no effect)); in data set [16] it was 3 (Herbicidal ratio of 40% or higher and lower than 70%). Besides, the “K: Lolium multiflorum Lam., herbicidal effect grade” value in [4] was 2 (Herbicidal ratio of 20% or higher and lower than 40%); in data set [14] it was 0 (Herbicidal ratio of 5% or lower (almost no effect)). Besides, the “Herbicidal effect grade, B” value in data set [5] is reported as 0 (Herbicidal ratio of 5% or lower (almost no effect)). Moreover, the “c: corn, effect on crop grade” value in data set [6] is 0 (Herbicidal ratio of 5% or lower (almost no effect)). In data set [7], the “G: Setaria viridis” value was 0 (Herbicidal ratio of 5% or lower (almost no effect)). Also, the “herbicidal effect on H” value in data set [8] is on record as 0 (Herbicidal ratio of 5% or lower (almost no effect)). In data set [9], the “I: Avena fatua, herbicidal effect grade” value is on record as 0 (Herbicidal ratio of 5% or lower (almost no effect)). Moreover, the “P: Stellaria media” value in data set [10] is 0 (Herbicidal ratio of 5% or lower (almost no effect)). Moreover, the “L: Apera spica-venti” value in [11] was 0 (Herbicidal ratio of 5% or lower (almost no effect)). In data set [12], the “R: Veronica persica” value is on record as 0 (Herbicidal ratio of 5% or lower (almost no effect)). In addition, the “e: wheat, effect on crop grade” value in data set [13] is reported as 0 (Herbicidal ratio of 5% or lower (almost no effect)). In addition, the “H: Echinochloa crus-galli var. crus-galli, herbicidal effect grade” value in data set [15] is given as 0 (Herbicidal ratio of 5% or lower (almost no effect)).
For the compound `CCOC(=O)C(CC)(C(C)=O)C1CC(O)=C(c2c(C)cc(C)cc2C)C1=O` (stereo not shown) [2-012], the “J: Alopecurus myosuroides” value in data set [1] is 1 (Herbicidal ratio of 5% or higher and lower than 20%). Also, in data set [2], the “herbicidal effect on E, grade 0-5” value was 0 (Herbicidal ratio of 5% or lower (almost no effect)). The “b: directly sowed rice plant” value was 0 (Herbicidal ratio of 5% or lower (almost no effect)) in [3]; 4 (Herbicidal ratio of 70% or higher and lower than 90%) in data set [16]. Besides, the “K: Lolium multiflorum Lam., herbicidal effect grade” value is 3 (Herbicidal ratio of 40% or higher and lower than 70%) in data set [4]; 0 (Herbicidal ratio of 5% or lower (almost no effect)) in data set [14]. For the same compound, in [5], the “Herbicidal effect grade, B” value is listed as 0 (Herbicidal ratio of 5% or lower (almost no effect)). The “c: corn, effect on crop grade” value in data set [6] is given as 0 (Herbicidal ratio of 5% or lower (almost no effect)). Besides, the “G: Setaria viridis” value in data set [7] was 0 (Herbicidal ratio of 5% or lower (almost no effect)). Moreover, in data set [8], the “herbicidal effect on H” value is 0 (Herbicidal ratio of 5% or lower (almost no effect)). Further, the “I: Avena fatua, herbicidal effect grade” value in data set [9] is 0 (Herbicidal ratio of 5% or lower (almost no effect)). In addition, the “P: Stellaria media” value in data set [10] is reported as 0 (Herbicidal ratio of 5% or lower (almost no effect)). Moreover, the “L: Apera spica-venti” value in [11] is 0 (Herbicidal ratio of 5% or lower (almost no effect)). Also, the “R: Veronica persica” value in data set [12] is 0 (Herbicidal ratio of 5% or lower (almost no effect)). Further, the “e: wheat, effect on crop grade” value in data set [13] is 0 (Herbicidal ratio of 5% or lower (almost no effect)). For the same compound, the “H: Echinochloa crus-galli var. crus-galli, herbicidal effect grade” value in data set [15] is reported as 0 (Herbicidal ratio of 5% or lower (almost no effect)).
As to `Cc1cc(C)c(C2=C(O)CC(CC(=O)Cc3ccccc3)C2=O)c(C)c1` (stereo not shown) [2-015], in [1], the “J: Alopecurus myosuroides” value was 5 (Herbicidal ratio of 90% or more (almost completely withered)). Moreover, the “herbicidal effect on E, grade 0-5” value in [2] is given as 0 (Herbicidal ratio of 5% or lower (almost no effect)). For the same compound, the “b: directly sowed rice plant” value is 4 (Herbicidal ratio of 70% or higher and lower than 90%) in data set [3]; 5 (Herbicidal ratio of 90% or more (almost completely withered)) in data set [16]. For the same compound, the “K: Lolium multiflorum Lam., herbicidal effect grade” value in data set [4] and in data set [14] was 5 (Herbicidal ratio of 90% or more (almost completely withered)) in each case. Besides, the “Herbicidal effect grade, B” value in data set [5] is 0 (Herbicidal ratio of 5% or lower (almost no effect)). In [6], the “c: corn, effect on crop grade” value was 0 (Herbicidal ratio of 5% or lower (almost no effect)). Further, in data set [7], the “G: Setaria viridis” value was 5 (Herbicidal ratio of 90% or more (almost completely withered)). Besides, the “herbicidal effect on H” value in data set [8] is 1 (Herbicidal ratio of 5% or higher and lower than 20%). Also, the “I: Avena fatua, herbicidal effect grade” value in data set [9] is 4 (Herbicidal ratio of 70% or higher and lower than 90%). Besides, in data set [10], the “P: Stellaria media” value is given as 0 (Herbicidal ratio of 5% or lower (almost no effect)). Moreover, the “L: Apera spica-venti” value in data set [11] was 3 (Herbicidal ratio of 40% or higher and lower than 70%). Moreover, in data set [12], the “R: Veronica persica” value is 0 (Herbicidal ratio of 5% or lower (almost no effect)). In addition, in data set [13], the “e: wheat, effect on crop grade” value is 0 (Herbicidal ratio of 5% or lower (almost no effect)). In data set [15], the “H: Echinochloa crus-galli var. crus-galli, herbicidal effect grade” value was 1 (Herbicidal ratio of 5% or higher and lower than 20%).

The values are drawn from patent US11000033B2, “Ketone or oxime compound, and herbicide” (NISSAN CHEMICAL CORPORATION, priority 2014, dated 2021).
